Results reported in patent US6806230B1, “Pyrimidine derivatives and herbicides containing them” (Kumiai Chemical Industry Co., Ltd., priority 1999, dated 2004).

Experiments:
Assay type in all cases: in vivo
barnyard grass (Eo) [1] = experiment: Test Example 1: herbicidal effects by flooded paddy field treatment; parameters: herbicidal effects, Eo (barnyard grass):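 0-5 growth inhibition grade; 5 = over 90%; 4 = 70-90%; 3 = 50-70%; 2 = 30-50%; 1 = 10-30%; 0 = under 10%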; conditions: dose 100 g active ingredient per 10 ares, examined on the 21st day after treatment, standards of Table 44
Summary of the method: (§1)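 Herbicidal effect scored 21 days post-treatment after greenhouse cultivation. Treatment was applied dropwise to the water surface, one day after sowing, as a diluted wettable powder (100 g a.i./10 ares). Pots held puddled paddy soil under 3 cm water.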

monochoria (Mo) [2] = experiment: as above; parameters: herbicidal effects, Mo (monochoria):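 0-5 growth inhibition grade; 5 = over 90%; 4 = 70-90%; 3 = 50-70%; 2 = 30-50%; 1 = 10-30%; 0 = under 10%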; conditions: dose 100 g active ingredient per 10 ares, examined on the 21st day after treatment, standards of Table 44
Summary of the method: as §1

barnyard grass (Ec) [3] = experiment: Test Example 2: herbicidal effects by upland soil treatment; parameters: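 0-5 growth inhibition grade; 5 = over 90%; 4 = 70-90%; 3 = 50-70%; 2 = 30-50%; 1 = 10-30%; 0 = under 10%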; conditions: dose 100 g active ingredient per 10 ares, examined on the 21st day after treatment
Summary of the method: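 Pre-emergence test: barnyard grass and green foxtail sown in upland soil, then soil surface sprayed with wettable-powder formulation at 100 g active ingredient per 10 ares (100 l per 10 ares). Grown in greenhouse; herbicidal effect scored on a rating scale 21 days after treatment.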

barnyard grass (Ec) [4] = experiment: Test Example 3: herbicidal effects by foliage treatment in upland field; parameters: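 0-5 growth inhibition grade; 5 = over 90%; 4 = 70-90%; 3 = 50-70%; 2 = 30-50%; 1 = 10-30%; 0 = under 10%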; conditions: dose 100 g active ingredient per 10 ares, examined on the 14th day after treatment
Summary of the method: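 Barnyard grass and green foxtail were grown in upland soil for 2 weeks in a greenhouse. A water-diluted wettable powder was sprayed over the foliage at 100 l per 10 ares, giving 100 g active ingredient per 10 ares. Herbicidal effect was scored on day 14 after treatment.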

barnyard grass (Eo) [5] = experiment: Test Example 4: selectivity for a crop plant by flooded paddy field treatment; parameters: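 0-5 growth inhibition grade; 5 = over 90%; 4 = 70-90%; 3 = 50-70%; 2 = 30-50%; 1 = 10-30%; 0 = under 10%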; conditions: barnyard grass, dose 25 gai/10a, 21st day after treatment, index per Table 44
Summary of the method: (§2)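 Flooded-paddy treatment: the wettable powder formulation, diluted in water, was applied dropwise to 3 cm floodwater at 25 g a.i./10 ares one day after sowing barnyard grass and monochoria and transplanting rice at the second leaf stage. Greenhouse grown; herbicidal effect rated against set standards on day 21.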

monochoria (Mo) [6] = experiment: as above; parameters: scale not given here; conditions: monochoria, dose 25 gai/10a, 21st day after treatment, index per Table 44
Summary of the method: as §2

rice (Or) = experiment: as above; parameters: scale not given here; conditions: rice transplanted at second leaf stage, dose 25 gai/10a, 21st day after treatment, index per Table 44
Summary of the method: as §2

Structure (SMILES) | herbicidal effects, Eo (barnyard grass) (barnyard grass (Eo) [1]) | herbicidal effects, Mo (monochoria) (monochoria (Mo) [2]) | Ec (herbicidal effects, index) (barnyard grass (Ec) [3]) | Ec (herbicidal effects, index) (barnyard grass (Ec) [4]) | Eo (herbicidal effect index) (barnyard grass (Eo) [5]) | Mo (herbicidal effect index) (monochoria (Mo) [6]) | Or (herbicidal effect index on crop) (rice (Or))
CCOC(OCC)C(c1cncnc1C(C)C)N(C)C(=O)Cc1ccc(F)cc1 (racemic) [1-455] | 5 | 5 | 5 | 4 | 5 | 5 | 1
CCCc1ncncc1C(CCC)N(C)C(=O)Cc1ccccc1 (racemic) [1-492] | 5 | 5 | 5 | 5 | 5 | 5 | 0
CC(C)C(c1cncnc1C(F)(F)F)N(C)C(=O)NCc1ccccc1 (racemic) [1-461] | 5 | 5 | 5 | 4 | 5 | 5 | 1
CN(C(=O)Cc1ccc(F)cc1)C(c1ccccc1F)c1cncnc1C(F)(F)F (racemic) [1-547] | 5 | 5 | 5 | 4 | 5 | 5 | 1
CCC(c1cncnc1C(C)C)N(C)C(=O)Cc1ccccc1 (racemic) [1-436] | 5 | 5 | 5 | 4 | 5 | 5 | 1
CCc1ncncc1C(C(C)C)N(C)C(=O)Cc1ccc(Cl)s1 (racemic) [2-75] | 5 | 5 | 5 | 5 | 5 | 5 | 1
CON(C(=O)Cc1ccc(F)cc1)C(c1cncnc1C(F)(F)F)C(C)C (racemic) [1-333] | 5 | 5 | 5 | 4 | 5 | 5 | 1
COc1ccccc1C(c1cncnc1C(F)(F)F)N(C)C(=O)Cc1ccc(F)cc1 (racemic) [1-489] | 5 | 5 | 5 | 4 | 5 | 5 | 1
CCc1ncncc1C(C(C)C)N(C)S(=O)(=O)c1ccccc1 (racemic) [4-2] | 5 | 5 | 5 | 5 | 5 | 5 | 1
